# Experimental data taken from patent US20210322397A1, “METHOD TO PREVENT AND TREAT GINGIVAL RECESSION BY CALCIUM CHANNEL BLOCKERS, ANGIOTENSIN CONVERTING ENZYME INHIBITORS, AND ANGIOTENSIN RECEPTOR BLOCKERS” (priority 2018, published 2021).
# Like-named read-outs stand apart in the source and are kept apart here.
# Assays:
# gingival recession [1] = settings: patient previously successfully treated, after a period of time
# Description: A composition comprising the ACE inhibitor enalapril is directly applied to the tissue of the gum on one side of the mouth while the other side is left untreated.
# A composition comprising the angiotensin receptor blocker losartan is directly applied to the tissue of the gum on one side of the mouth while the other side is left untreated.
# A composition comprising the ACE inhibitor enalapril is administered by injection into the tissue of the gum on one side of the mouth while the other side is left untreated.
# A composition comprising the angiotensin receptor blocker losartan is administered by injection into the tissue of the gum on one side of the mouth while the other side is left untreated.
# gingival recession [2] = settings: patient with gingival recession throughout the mouth
# Text: (§1) A patient is diagnosed with gingival recession throughout the mouth.
# A patient is diagnosed with gingival recession throughout the mouth. A composition comprising the ACE inhibitor enalapril is directly applied to the tissue of the gum on one side of the mouth while the other side is left untreated.
# A patient is diagnosed with gingival recession throughout the mouth. A composition comprising the angiotensin receptor blocker losartan is directly applied to the tissue of the gum on one side of the mouth while the other side is left untreated.
# as §1
# A patient is diagnosed with gingival recession throughout the mouth. A composition comprising the ACE inhibitor enalapril is administered by injection into the tissue of the gum on one side of the mouth while the other side is left untreated.
# A patient is diagnosed with gingival recession throughout the mouth. A composition comprising the angiotensin receptor blocker losartan is administered by injection into the tissue of the gum on one side of the mouth while the other side is left untreated.
# [3] = composition administered by injection into the tissue of the gum on one side
# [4] = composition directly applied to the tissue of the gum on one side
Structure (SMILES),"recurrence of symptoms of gingival recession, treated side versus untreated side (gingival recession [1]; [3])","recurrence of symptoms of gingival recession, treated side versus untreated side (gingival recession [1]; [4])","symptoms of gingival recession, treated side versus untreated side (gingival recession [2]; [3])","symptoms of gingival recession, treated side versus untreated side (gingival recession [2]; [4])"
CCOC(=O)[C@H](CCc1ccccc1)N[C@@H](C)C(=O)N1CCC[C@H]1C(=O)O [enalapril],free of symptoms of gingival recession,free of symptoms of gingival recession,reduced symptoms of gingival recession,reduced symptoms of gingival recession
CCCCc1nc(Cl)c(CO)n1Cc1ccc(-c2ccccc2-c2nn[nH]n2)cc1 [losartan],free of symptoms of gingival recession,free of symptoms of gingival recession,reduced symptoms of gingival recession,reduced symptoms of gingival recession
